Reference: patent publication US20060069132A1, “Azolecarboxamide herbicides” (priority 2004, published 2006)

Columns and labels:
rice [1] = test: Test B flooded paddy test; format: in vivo, Oryza sativa; details: 1000 g ai/ha, scale 0 to 100 (0 no effect, 100 complete control)
Method in brief: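 Visual ratings, 0 (no effect) to 100 (complete control), made versus controls after 13–15 d greenhouse. Paddy plants treated at 2-leaf stage; postemergence plants at 1- to 4-leaf stage, 2–18 cm tall.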

ducksalad = test: Test B flooded paddy test; format: in vivo, Heteranthera limosa; details: 1000 g ai/ha, scale 0 to 100 (0 no effect, 100 complete control)
Method in brief: (§1)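 Formulated test chemicals went onto postemergence plants measuring 2 to 18 cm, at one to four leaves. For the paddy assay, species had reached two leaves. Scoring took place 13–15 days later by eye, relative to untreated plants, using 0 for no effect up to 100 for full control.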

wild oat = test: Test B postemergence herbicide test; format: in vivo, Avena fatua; details: postemergence
Method in brief: (§2)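 Treated at 2-leaf (paddy) or 1–4-leaf, 2–18 cm (postemergence); greenhouse 13–15 d; visual score vs control, 0 none to 100 complete control; dash = not tested.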

large crabgrass [2] = test: Test B pre-/postemergence herbicide test; format: in vivo, Digitaria sanguinalis; details: for Crabgrass, Large plant response rating: postemergence
Method in brief: (§3)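 Seeds were planted and treated preemergence with compounds formulated in a non-phytotoxic solvent mixture containing surfactant, while plants at the 1- to 4-leaf stage (2 to 18 cm) received postemergence sprays. Flooded paddy plants were grown to the 2-leaf stage. After 13 to 15 days in a greenhouse, injury was visually rated 0–100 against untreated controls.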

Surinam grass = test: Test B pre-/postemergence herbicide test; format: in vivo, Urochloa decumbens; details: for Surinam Grass plant response rating: postemergence
Method in brief: as §3

redroot pigweed = test: Test A pre-/postemergence herbicide test; format: in vivo, Amaranthus retroflexus
Method in brief: (§4)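 Both application timings were run together: directed soil spray over freshly planted seeds in sandy loam, and runoff spray onto 2–10 cm seedlings. Evaluation after ~10 days in greenhouse used a 0–100 visual scale versus untreated controls.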

wheat = test: Test B postemergence herbicide test; format: in vivo, Triticum aestivum; design: key to Wheat plant response rating: 0 = no effect, 100 = complete control; details: postemergence
Method in brief: as §2

giant foxtail [3] = test: Test B pre-/postemergence herbicide test; format: in vivo, Setaria faberi; details: for Foxtail, Giant plant response rating: postemergence
Method in brief: as §3

cocklebur = test: Test B pre-/postemergence herbicide test; format: in vivo, Xanthium strumarium; details: for Cocklebur plant response rating: postemergence
Method in brief: (§5)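 Plants compared with untreated controls 13–15 days post-treatment and given a visual 0–100 injury score. Applications: preemergence to seeds; postemergence at 1- to 4-leaf (2–18 cm); paddy species flooded, 2-leaf stage. Vehicle non-phytotoxic, surfactant included.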

morningglory [4] = test: Test B pre-/postemergence herbicide test; format: in vivo, Ipomoea coccinea; details: for Morningglory plant response rating: postemergence
Method in brief: as §5

barnyardgrass [5] = test: Test B pre-/postemergence herbicide test; format: in vivo, Echinochloa crus-galli; details: for Barnyardgrass plant response rating: postemergence
Method in brief: as §5

velvetleaf [6] = test: Test A pre-/postemergence herbicide test; format: in vivo, Abutilon theophrasti
Method in brief: as §4

blackgrass = test: Test B postemergence herbicide test; format: in vivo, Alopecurus myosuroides; details: postemergence
Method in brief: as §1

corn = test: Test B pre-/postemergence herbicide test; format: in vivo, Zea mays; details: for Corn plant response rating: postemergence
Method in brief: as §3

giant foxtail [7] = test: Test A pre-/postemergence herbicide test; format: in vivo, Setaria faberi
Method in brief: as §4

lambsquarters = test: Test B pre-/postemergence herbicide test; format: in vivo, Chenopodium album; details: postemergence
Method in brief: as §3

pigweed = test: Test B pre-/postemergence herbicide test; format: in vivo, Amaranthus retroflexus; details: for Pigweed plant response rating: postemergence
Method in brief: as §3

barnyardgrass [8] = test: Test A pre-/postemergence herbicide test; format: in vivo, Echinochloa crus-galli
Method in brief: as §4

large crabgrass [9] = test: Test A pre-/postemergence herbicide test; format: in vivo, Digitaria sanguinalis
Method in brief: as §4

velvetleaf [10] = test: Test B pre-/postemergence herbicide test; format: in vivo, Abutilon theophrasti; details: for Velvetleaf plant response rating: postemergence
Method in brief: as §3

[11] = system: small flower umbrella sedge; test: Test B flooded paddy test; format: in vivo, Cyperus difformis; details: 1000 g ai/ha, scale 0 to 100 (0 no effect, 100 complete control)
Method in brief: as §1

rice [12] = test: Test B pre-/postemergence herbicide test; format: in vivo, Oryza sativa; details: 0 = no effect, 100 = complete control, preemergence
Method in brief: as §3

barnyardgrass [13] = test: Test B flooded paddy test; format: in vivo, Echinochloa crus-galli; details: 1000 g ai/ha, scale 0 to 100 (0 no effect, 100 complete control)
Method in brief: as §1

morningglory [14] = test: Test A pre-/postemergence herbicide test; format: in vivo, Ipomoea spp.
Method in brief: as §4

[15] = 125 g ai/ha, visual rating, scale 0 (no effect) to 100 (complete control)
[16] = 500 g ai/ha, scale 0 to 100, 0 is no effect, 100 is complete control
[17] = 125 g ai/ha, 0 = no effect, 100 = complete control, preemergence
[18] = 500 g ai/ha, visual rating, 0 = no effect, 100 = complete control, preemergence
[19] = Postemergence, 500 g ai/ha, 0 to 100 scale, 0 no effect, 100 complete control
[20] = Postemergence, 2000 g ai/ha, 0 to 100 scale, 0 no effect, 100 complete control
[21] = Preemergence, 2000 g ai/ha, visual rating, 0 to 100 scale (0 no effect, 100 complete control)
[22] = preemergence, 500 g ai/ha, visual injury, 0 to 100 scale (0 no effect, 100 complete control)

Structure (SMILES): CCn1nc(C(C)(C)C)cc1C(=O)Nc1cc(C(=O)N(C)C)c(F)cc1F [Compound 270]
- Rice plant response rating (rice [1]): 70
- Ducksalad plant response rating (ducksalad): 70
- Oat, Wild plant response rating (wild oat; [15]): 0
- Oat, Wild plant response rating (wild oat; [16]): 0
- Crabgrass, Large plant response rating (0 to 100 scale) (large crabgrass [2]; [17]): 0
- Plant response rating, Crabgrass, Large (large crabgrass [2]; [18]): 20
- Crabgrass, Large plant response rating (large crabgrass [2]; [15]): 0
- Crabgrass, Large plant response rating (large crabgrass [2]; [16]): 0
- Surinam Grass plant response rating (0 to 100 scale) (Surinam grass; [17]): 0
- Plant response rating, Surinam Grass (Surinam grass; [18]): 20
- Surinam Grass plant response rating (Surinam grass; [15]): 0
- Surinam Grass plant response rating (Surinam grass; [16]): 10
- Pigweed plant response rating (redroot pigweed; [19]): 20
- Plant response rating, Pigweed (redroot pigweed; [20]): 0
- Pigweed plant response rating (redroot pigweed; [21]): 85
- Pigweed plant response rating (redroot pigweed; [22]): 15
- Wheat plant response rating (wheat; [15]): 0
- Wheat plant response rating (wheat; [16]): 0
- Foxtail, Giant plant response rating (0 to 100 scale) (giant foxtail [3]; [17]): 0
- Plant response rating, Foxtail, Giant (giant foxtail [3]; [18]): 50
- Foxtail, Giant plant response rating (giant foxtail [3]; [15]): 0
- Foxtail, Giant plant response rating (giant foxtail [3]; [16]): 0
- Cocklebur plant response rating (0 to 100 scale) (cocklebur; [17]): 0
- Plant response rating, Cocklebur (cocklebur; [18]): 0
- Cocklebur plant response rating (cocklebur; [15]): 0
- Cocklebur plant response rating (cocklebur; [16]): 0
- Morningglory plant response rating (0 to 100 scale) (morningglory [4]; [17]): 0
- Plant response rating, Morningglory (morningglory [4]; [18]): 0
- Morningglory plant response rating (morningglory [4]; [15]): 0
- Morningglory plant response rating (morningglory [4]; [16]): 10
- Barnyardgrass plant response rating (0 to 100 scale) (barnyardgrass [5]; [17]): 0
- Plant response rating, Barnyardgrass (barnyardgrass [5]; [18]): 50
- Barnyardgrass plant response rating (barnyardgrass [5]; [15]): 0
- Barnyardgrass plant response rating (barnyardgrass [5]; [16]): 0
- Velvetleaf plant response rating (velvetleaf [6]; [19]): 15
- Plant response rating, Velvetleaf (velvetleaf [6]; [20]): 25
- Velvetleaf plant response rating (velvetleaf [6]; [21]): 55
- Velvetleaf plant response rating (velvetleaf [6]; [22]): 30
- Blackgrass plant response rating (blackgrass; [15]): 0
- Blackgrass plant response rating (blackgrass; [16]): 20
- Corn plant response rating (0 to 100 scale) (corn; [17]): 0
- Plant response rating, Corn (corn; [18]): 50
- Corn plant response rating (corn; [15]): 0
- Corn plant response rating (corn; [16]): 10
- Foxtail, Giant plant response rating (giant foxtail [7]; [19]): 0
- Plant response rating, Foxtail, Giant (giant foxtail [7]; [20]): 0
- Foxtail, Giant plant response rating (giant foxtail [7]; [21]): 70
- Foxtail, Giant plant response rating (giant foxtail [7]; [22]): 20
- Lambsquarters plant response rating (lambsquarters; [15]): 0
- Lambsquarters plant response rating (lambsquarters; [16]): 10
- Pigweed plant response rating (0 to 100 scale) (pigweed; [17]): 0
- Pigweed plant response rating (pigweed; [15]): 0
- Pigweed plant response rating (pigweed; [16]): 0
- Barnyardgrass plant response rating (barnyardgrass [8]; [19]): 0
- Plant response rating, Barnyardgrass (barnyardgrass [8]; [20]): 30
- Barnyardgrass plant response rating (barnyardgrass [8]; [21]): 90
- Barnyardgrass plant response rating (barnyardgrass [8]; [22]): 60
- Crabgrass, Large plant response rating (large crabgrass [9]; [19]): 0
- Plant response rating, Crabgrass, Large (large crabgrass [9]; [20]): 10
- Crabgrass, Large plant response rating (large crabgrass [9]; [21]): 35
- Crabgrass, Large plant response rating (large crabgrass [9]; [22]): 5
- Velvetleaf plant response rating (0 to 100 scale) (velvetleaf [10]; [17]): 50
- Plant response rating, Velvetleaf (velvetleaf [10]; [18]): 70
- Velvetleaf plant response rating (velvetleaf [10]; [15]): 0
- Velvetleaf plant response rating (velvetleaf [10]; [16]): 0
- Sedge, Umbrella plant response rating [11]: 60
- Rice plant response rating (0 to 100 scale) (rice [12]; 125 g ai/ha): 0
- Plant response rating, Rice (rice [12]; 500 g ai/ha, visual rating): 60
- Barnyardgrass plant response rating (barnyardgrass [13]): 50
- Morningglory plant response rating (morningglory [14]; [19]): 20
- Plant response rating, Morningglory (morningglory [14]; [20]): 20
- Morningglory plant response rating (morningglory [14]; [21]): 30
- Morningglory plant response rating (morningglory [14]; [22]): 0
